Results from ChEMBL document CHEMBL1148065, “Two new flavones from Calliandra californica” (1994).
Calls of active or inactive are those of the source. The calls are words filed in the database; no cut-off is given here.

Tests used:
Staphylococcus aureus = assay: Antimicrobial activity against Staphylococcus aureus at 1 mg/disk; assay type: functional
Bacillus subtilis = assay: Antimicrobial activity against Bacillus subtilis at 1 mg/disk; assay type: functional

## COc1cc(O)c2c(=O)cc(-c3cc(OC)c(OC)cc3OC)oc2c1
Staphylococcus aureus
  inhibition zone (IZ): 8 mm
Bacillus subtilis
  inhibition zone (IZ): 11 mm

## COc1ccc2c(=O)cc(-c3cc(OC)c(OC)cc3OC)oc2c1
Staphylococcus aureus
  Activity: inactive
Bacillus subtilis
  Activity: inactive
